Results: patent publication US20140088066A1, “PLATINUM COMPOUNDS, COMPOSITIONS AND METHODS FOR THE TREATMENT OF CANCER” (Blend Therapeutics, priority 2012, published 2014)
Like-named read-outs stand apart in the source and are kept apart here.

Key:
[1] = physchem
Protocol: Nanoparticle formulation of compound of Formula XVI. […] (cold) or at 20-25° C. (warm) and stored refrigerated or frozen with 10% sucrose.

[2] = physchem; remark: listed apart in the source
[3] = Aqueous solubility

Row | Compound | saturated solubility in ethyl acetate (EA) [1] | solubility ([1]; organic solvent or mixture) [mg/mL] | solubility [2] [mg/mL] | aqueous solubility [3] [mg/mL]
1 | CCCCCCCCCCCCCCCCCC(=O)[O][Pt]([NH2])([NH2])[n+]1cc2ccccc2c2ccccc21 [Compound 27, phenantriplatin (stearate) nitrate] | low | 1.5 | < 0.1 | –
2 | phenanthriplatin [phenantriplatin] | – | – | – | 5
